# Values of other authors in patent US9211338B2, “Composition and method for treating HPV” (Universite Libre de Bruxelles, priority 2011, dated 2015).
# Where two headings read alike, the source gives them in different places.
# How the values were obtained:
# HPV-positive cells = conditions: in vitro
smiles,measurement,setting,value
Nc1ccn(C[C@@H](CO)OCP(=O)(O)O)c(=O)n1 [cidofovir],clinical outcome,"HPV; intravenous (systemic), disseminated papillomatosis",stabilization of disseminated papillomatosis
same,clinical outcome,"HPV; local intratumor injections, patients with papillomatous lesions",complete regression of the tumor
same,inhibition of cell proliferation,HPV-positive cells,concentration- and time-dependent inhibition of cell proliferation
